Results as given in PMC9241686 (Microbiology Spectrum, 2022).
Read-outs that look alike come from different tables or passages of the source.

Experiments:
[1] = system: intracellular M. tuberculosis; parameters: method as in PMID 35046812; conditions: M. tuberculosis in RAW 264.7, high-content assay; primary screen hits; read-out: Intracellular TB IC50; cited from earlier work
[2] = system: extracellular M. tuberculosis; parameters: method as in PMID 35046812; conditions: standard culture medium; primary screen hits; read-out: Extracellular TB IC50; cited from earlier work
macrophages (RAW 264.7) [3] = system: macrophages (RAW 264.7); parameters: method as in PMID 35046812; conditions: RAW 264.7 infected macrophages, high-content assay; primary screen hits; read-out: Macrophage IC50; cited from earlier work
HepG2 cells [4] = system: HepG2 cells; parameters: method as in PMID 35046812; conditions: standard culture medium; primary screen hits; cited from earlier work
HepG2 cells [5] = assay: cells; type: cell-based, human; conditions: Homo sapiens, HepG2; 72 h, CellTiter-Glo
[6] = system: extracellular M. tuberculosis; assay: microbe, parasite or virus in culture; type: cell-based; conditions: Mycobacterium tuberculosis
macrophages (RAW 264.7) [7] = assay: cells; type: cell-based, murine; conditions: Mus musculus, RAW264.7; RAW 264.7 infected macrophages, high-content assay, 72 h; read-out: Macrophage IC50
[8] = system: intracellular M. tuberculosis; assay: microbe, parasite or virus in culture; type: cell-based, Mycobacterium tuberculosis; conditions: for IC50 / Intracellular TB IC50: M. tuberculosis in RAW 264.7, high-content assay, 72 h; for IC50: read-out: Intracellular TB IC50
[9] = system: extracellular M. tuberculosis; assay: microbe, parasite or virus in culture; type: cell-based, Mycobacterium tuberculosis; conditions: for IC50: Mycobacterium tuberculosis, 168 h, read-out: Cholesterol IC50; for Fold-change: glucose IC50 versus cholesterol IC50
[10] = system: replicating M. tuberculosis; assay: Kill kinetics against replicating M. tuberculosis; type: cell-based, Mycobacterium tuberculosis; conditions: up to 100 μM, over 21 days, aerobic culture in 7H9-Tw-OADC
[11] = 120 h, read-out: Extracellular TB IC50
[12] = Mycobacterium tuberculosis, RAW264.7, 72 h
[13] = glucose as carbon source, read-out: Glucose IC50

Row | Compound | IC50 (HepG2 cells [5]) | IC50 [6, 11] | IC50 (macrophages (RAW 264.7) [7]) | IC50 [8, 12] | other results
1 | CCOc1ccc(NC(=S)Nc2ccccc2)cc1 [Compound 1] | – | – | – | – | IC50 [1]: 400 nM; IC50 [2]: > 20 µM; IC50 (macrophages (RAW 264.7) [3]): > 100 µM; IC50 (HepG2 cells [4]): > 100 µM
2 | CCOc1ccc(NC(=S)Nc2ccc(C)c(C#N)c2)cc1 [Compound 2] | – | – | – | – | IC50 [1]: 300 nM; IC50 [2]: 9.5 µM; IC50 (macrophages (RAW 264.7) [3]): 47 µM; IC50 (HepG2 cells [4]): 64 µM
3 | O=C(Nc1ccc(Cl)cc1)Nc1ccc(Nc2ccccc2)cc1 [Compound 3] | – | – | – | – | IC50 [2]: > 20 µM; IC50 (macrophages (RAW 264.7) [3]): 68 µM; IC50 (HepG2 cells [4]): > 100 µM
4 | O=C(Nc1ccc(C(F)(F)F)cc1)Nc1cccc(Cl)c1 [Compound 4] | – | – | – | – | IC50 [1]: 700 nM; IC50 [2]: 15 µM; IC50 (macrophages (RAW 264.7) [3]): 1.8 µM; IC50 (HepG2 cells [4]): 5.6 µM
5 | Cc1cc(C)nc(NC(=N)Nc2ccc(Br)cc2)n1 [Compound 5] | – | – | – | – | IC50 [1]: 1300 nM; IC50 [2]: 8.2 µM; IC50 (macrophages (RAW 264.7) [3]): 18 µM; IC50 (HepG2 cells [4]): 22 µM
6 | Fc1cccc(NC(=S)Nc2ccccc2C(F)(F)F)c1 [Compound 7] | 86 µM | > 200 µM | 53 µM | > 100 µM | –
7 | CCOc1ccc(NC(=S)NC)cc1 [Compound 8] | > 100 µM | 80 µM | > 100 µM | < 20 µM | IC50 [8]: 10 µM
8 | S=C(Nc1ccccc1)NC1CCCCC1 [Compound 9] | > 100 µM | 130 µM | > 100 µM | > 100 µM | Intracellular TB IC50 [8]: loss of intracellular activity
9 | CNC(=S)Nc1ccccc1 [Compound 10] | > 100 µM | > 200 µM | > 100 µM | > 100 µM | –
10 | CCOc1ccc(NC(=S)Nc2ccccc2C(=O)OC)cc1 [Compound 11] | > 100 µM | > 200 µM | 46 µM | – | –
11 | COc1ccc(NC(=S)Nc2ccccc2C)cc1 [Compound 12] | > 100 µM | > 200 µM | > 100 µM | < 20 µM | IC50 [8]: 19 µM
12 | COc1ccc(NC(=S)Nc2ccc(C(N)=O)cc2)cc1 [Compound 13] | > 100 µM | > 200 µM | > 100 µM | > 100 µM | Intracellular TB IC50 [8]: inactive
13 | CCOc1ccc(NC(=S)Nc2ccc(OC)cc2)cc1 [Compound 14] | > 100 µM | 7.2 µM | > 100 µM | – | IC50 [6, 13]: 7.2 µM; selectivity index (SI) ([8]; cytotoxicity IC50 over intracellular M. tuberculosis IC50): > 588; fold difference between extracellular and intracellular IC50 ([8]; extracellular versus intracellular M. tuberculosis): > 40 fold; IC50 [9]: 15 µM; Fold-change [9]: 0.5; culture viability (CFU) in kill kinetics [10]: small decrease in viable bacteria at day 21 at the highest concentration
14 | COc1ccc(NC(=S)Nc2ccccc2Cl)cc1 [Compound 15] | > 100 µM | > 200 µM | > 100 µM | < 20 µM | IC50 [8]: 14 µM
15 | CCOc1ccc2nc(NC(=S)Nc3ccccc3)sc2c1 [Compound 16] | 73 µM | 26 µM | 28 µM | < 1 µM | IC50 [6, 13]: 26 µM; IC50 [8]: 0.75 µM; IC50 [9]: 6.6 µM; Fold-change [9]: 3.9
16 | S=C(Nc1ccccc1)Nc1ccc(Cl)cc1 [Compound 17] | 91 µM | 104 µM | 42 µM | < 20 µM | IC50 [8]: 16 µM
17 | COc1ccc(NC(=S)Nc2ccccc2C(F)(F)F)cc1OC [Compound 18] | > 100 µM | > 200 µM | > 100 µM | > 100 µM | Intracellular TB IC50 [8]: inactive
18 | COc1ccc(NC(=S)Nc2ccc(F)cc2)cc1 [Compound 20] | > 100 µM | 91 µM | > 100 µM | 9.2 µM | –
